Measurements: patent US20230066946A1, “1,5-DIPHENYLPYRAZOLYL-3-OXYALKYL ACIDS AND 1-PHENYL-5-THIENYLPYRAZOLYL-3-OXYALKYL ACIDS AND THE USE THEREOF FOR CONTROL OF UNWANTED PLANT GROWTH” (Bayer Aktiengesellschaft, priority 2019, published 2023)

Key:
[1] = system: STEME; assay: Pre-emergence herbicidal action against STEME; assay type: in vivo, Stellaria media; conditions: 1280 g/ha, scored visually after about 3 weeks vs untreated controls
Source text: (§1) Seeds of mono- and dicotyledonous weed plants are placed in plastic pots in sandy loam soil (doubly sown with one species each of mono- or dicotyledonous weed plants per pot) and covered with soil. The compounds of the invention, formulated in the form of wettable powders (WP) or as emulsion concentrates (EC), are then applied onto the surface of the covering soil as aqueous suspension or emulsion with addition of 0.5% additive at a water application rate equivalent to 600 litres per hectare. After the treatment, the pots are placed in a greenhouse and kept under good growth conditions for the trial plants. After about 3 weeks, the effect of the preparations is scored visually in comparison with untreated controls as percentages. For example, 100% activity=the plants have died, 0% activity=like control plants. [table] Tables 4.1-4.15 below show the effects of selected compounds of the general formula (I) according to Tables 1 to 3 on various harmful plants at an application rate corresponding to 1280 or 320 g/ha, which have been obtained by the aforementioned experimental method.

[2] = system: AMARE; assay: Post-emergence herbicidal action against AMARE; assay type: in vivo, Amaranthus retroflexus; conditions: 1280 g/ha, visual rating about 3 weeks after treatment
Description: (§2) [table] Seeds of mono- and dicotyledonous weed plants are placed in plastic pots in sandy loam soil (twin sowing with one species each of mono- or dicotyledonous weed plants per pot), covered with soil and cultivated in a greenhouse under controlled growth conditions. 2 to 3 weeks after sowing, the test plants are treated at the one-leaf stage. The compounds of the invention, formulated in the form of wettable powders (WP) or as emulsion concentrates (EC), are applied to the green parts of the plants as aqueous suspension or emulsion with addition of 0.5% additive at a water application rate equivalent to 600 litres per hectare. After the test plants have been kept in the greenhouse under optimum growth conditions for about 3 weeks, the activity of the preparations is rated visually in comparison to untreated controls. For example, 100% activity=the plants have died, 0% activity=like control plants. Tables 5.1-5.16 below show the effects of selected compounds of the general formula (I) according to Tables 1 to 3 on various harmful plants at an application rate corresponding to 1280 or 320 g/ha, which have been obtained by the aforementioned experimental method.

[3] = system: AMARE; assay: Pre-emergence herbicidal action against AMARE; assay type: in vivo, Amaranthus retroflexus; conditions: 1280 g/ha, scored visually after about 3 weeks vs untreated controls
Source text: as §1

[4] = system: SETVI; assay: Pre-emergence herbicidal action against SETVI; assay type: in vivo, Setaria viridis; conditions: 1280 g/ha, scored visually after about 3 weeks vs untreated controls
Source text: as §1

[5] = system: STEME; assay: Post-emergence herbicidal action against STEME; assay type: in vivo, Stellaria media; conditions: 1280 g/ha, visual rating about 3 weeks after treatment
Description: as §2

[6] = system: MATIN; assay: Post-emergence herbicidal action against MATIN; assay type: in vivo, Matricaria inodora; conditions: 1280 g/ha, visual rating about 3 weeks after treatment
Description: as §2

Row | Compound | Pre-emergence action against STEME in % [1] [%] | Post-emergence action against AMARE in % [2] [%] | Pre-emergence action against AMARE in % [3] [%] | Pre-emergence action against SETVI in % [4] [%] | Post-emergence action against STEME in % [5] [%] | Post-emergence action against MATIN in % [6] [%]
1 | COC(=O)COc1nn(-c2ccc(C)cc2)c(-c2cccc(F)c2)c1C#N [I-020] | 80 | – | – | – | – | –
2 | COC(=O)COc1nn(-c2ccc(Cl)c(Cl)c2)c(-c2ccc(F)c(F)c2)c1Cl [I-027] | – | 80 | – | – | – | –
3 | CCOC(=O)COc1nn(-c2ccc(Cl)cc2)c(-c2ccc(F)cc2)c1Br [I-078] | – | 100 | 90 | 100 | – | –
4 | CCOC(=O)COc1nn(-c2ccc(F)cc2)c(-c2ccc(F)cc2F)c1Br [I-086] | 90 | 100 | 100 | 90 | – | –
5 | CCOC(=O)COc1nn(-c2ccc(F)cc2F)c(-c2ccc(F)cc2F)c1Br [I-088] | 100 | 100 | 90 | 90 | 100 | 90
6 | CCOC(=O)COc1nn(-c2ccccc2OC)c(-c2ccc(F)cc2F)c1Br [I-091] | – | 100 | 100 | 90 | – | –
7 | CCOC(=O)COc1nn(-c2ccccc2OC)c(-c2ccccc2)c1Br [I-092] | 100 | 100 | 100 | 100 | – | –
8 | COC(=O)COc1nn(-c2ccccc2F)c(-c2ccc(F)s2)c1Cl [I-094, Methyl {[4-chloro-1-(2-fluorophenyl)-5-(5-fluoro-2-thienyl)-1H-pyrazol-3-yl]oxy}acetate] | 100 | 100 | 100 | 100 | – | –
9 | COC(=O)COc1nn(-c2ccccc2F)c(-c2ccc(F)s2)c1Br [I-095] | 100 | 100 | 100 | 100 | – | 100
10 | COC(=O)COc1nn(-c2ccccc2F)c(-c2ccc([N+](=O)[O-])cc2)c1[N+](=O)[O-] [I-099] | – | 90 | 90 | – | – | –
11 | COC(=O)COc1nn(-c2ccc(F)cc2)c(-c2cccc(F)c2)c1[N+](=O)[O-] [I-108] | – | – | 90 | 100 | – | –
12 | COC(=O)COc1nn(-c2ccc(F)cc2)c(-c2cccc(F)c2)c1I [I-109] | 100 | 100 | – | – | 90 | –
13 | O=C(COc1nn(-c2ccccc2)c(-c2ccc(F)cc2)c1Br)OCc1ccccc1 [I-112] | 100 | – | 100 | – | – | –
14 | O=C(O)COc1nn(-c2ccc(F)cc2)c(-c2cccc(F)c2)c1I [I-118] | – | – | 100 | 90 | – | –
15 | O=C(COc1nn(-c2ccc(F)cc2)c(-c2cccc(F)c2)c1I)OCc1ccccc1 [I-124] | 100 | – | – | 100 | – | 90
16 | O=C(O)COc1nn(-c2cccc(F)c2)c(-c2ccccc2)c1Br [I-127] | 100 | 90 | 100 | 100 | – | 90
17 | O=C(O)COc1nn(-c2cccc(F)c2)c(-c2ccccc2)c1I [I-128] | 90 | 90 | 100 | – | – | –
18 | O=C(O)COc1nn(-c2cccc(F)c2)c(-c2ccccc2)c1[N+](=O)[O-] [I-129] | 100 | 100 | 100 | 100 | – | 100
19 | COC(=O)C(C)Oc1nn(-c2ccccc2)c(-c2ccc(F)cc2)c1Br (centres unmarked) [I-132, Methyl 2-{[4-bromo-5-(4-fluorophenyl)-1-phenyl-1H-pyrazol-3-yl]oxy}propanoate] | 100 | – | 100 | 100 | 100 | 90

Row | Compound | Pre-emergence action against STEME in % [1] [%] | Post-emergence action against AMARE in % [2] [%] | Pre-emergence action against AMARE in % [3] [%] | Pre-emergence action against SETVI in % [4] [%] | Post-emergence action against STEME in % [5] [%] | Post-emergence action against MATIN in % [6] [%]
20 | COC(=O)C(C)(C)Oc1nn(-c2ccccc2)c(-c2ccc(F)cc2)c1Br [I-135] | 100 | – | – | – | – | –
21 | CCOC(=O)COc1nn(-c2c(F)cccc2F)c(-c2ccc(F)c(F)c2)c1[N+](=O)[O-] [I-144] | – | – | 100 | 100 | – | –
22 | CCOC(=O)COc1nn(-c2ccc(Cl)cc2F)c(-c2ccc(F)cc2F)c1Br [I-150] | 100 | – | – | – | 100 | –
23 | CCOC(=O)COc1nn(-c2ccc(Cl)cc2F)c(-c2ccc(F)cc2Cl)c1Br [I-155] | 100 | – | 90 | – | – | –
24 | CCOC(=O)COc1nn(-c2ccc(Cl)cc2F)c(-c2ccc(F)cc2)c1Br [I-156] | 100 | 100 | 100 | 90 | – | 90
25 | COC(=O)C(C)Oc1nn(-c2ccccc2)c(-c2ccccc2F)c1Cl (centres unmarked) [I-166] | 90 | 100 | 90 | 90 | – | 100
26 | COC(=O)C(C)Oc1nn(-c2ccccc2F)c(-c2ccc(F)c(F)c2)c1Br (centres unmarked) [I-170] | 100 | 90 | 100 | 100 | 100 | –
27 | CCCN.O=C(O)COc1nn(-c2cccc(F)c2)c(-c2ccccc2)c1I [II-06] | 90 | – | 90 | – | 100 | –
28 | CCCN(CCC)CCC.O=C(O)COc1nn(-c2cccc(F)c2)c(-c2ccccc2)c1I [II-07] | 90 | – | 90 | – | – | –
29 | CCNC.O=C(O)COc1nn(-c2cccc(F)c2)c(-c2ccccc2)c1I [II-08] | – | – | – | – | 90 | –
30 | CC(C)(C)N.O=C(O)COc1nn(-c2cccc(F)c2)c(-c2ccccc2)c1I [II-09] | 100 | – | 90 | – | 100 | –
31 | CCN(CC)CC.O=C(O)COc1nn(-c2cccc(F)c2)c(-c2ccccc2)c1I [II-14] | – | – | 100 | – | – | –
32 | C=CCNC(=O)COc1nn(-c2ccc(F)cc2)c(-c2cccc(F)c2)c1I [III-008] | 100 | – | – | – | 100 | –
33 | CC#CCNC(=O)COc1nn(-c2ccc(F)cc2)c(-c2cccc(F)c2)c1Br [III-017] | 100 | 100 | 100 | 100 | – | –
34 | O=C(COc1nn(-c2ccc(F)cc2)c(-c2cccc(F)c2)c1Br)NC1CC1 [III-018] | 100 | 100 | 90 | 90 | – | –
35 | O=C(COc1nn(-c2ccc(F)cc2)c(-c2cccc(F)c2)c1Cl)NCC1CC1 [III-025] | 100 | 90 | – | – | 100 | –
36 | COC(=O)CNC(=O)COc1nn(-c2cccc(F)c2)c(-c2ccccc2)c1[N+](=O)[O-] [III-029] | – | – | 90 | – | – | –
37 | COC(=O)CNC(=O)C(C)Oc1nn(-c2ccccc2)c(-c2ccc(F)cc2)c1Br (centres unmarked) [III-056, Methyl N-(2-{[4-bromo-5-(4-fluorophenyl)-1-phenyl-1H-pyrazol-3-yl]oxy}propanoyl)glycinate] | 100 | – | 100 | 90 | – | 90
